Assay results as given in PMC10746280, “Bacterial efflux pump modulators prevent bacterial growth in macrophages and under broth conditions that mimic the host environment” (mBio, 2023).

Experiments:
[1] = tested on: Bacillus subtilis expressing mNeongreen-FtsZ; experiment: Membrane voltage disruption assay (mNeongreen-FtsZ delocalization); type: cell-based
Excerpt: We therefore monitored membrane integrity in the presence of EPM analogs by evaluating membrane voltage with mNeongreen-FtsZ ([28][–][30]). The FtsZ protein localizes to the bacterial septum based on membrane potential, and rapid delocalization of fluorescent FtsZ reporters occurs when voltage across the membrane is disrupted ([31], [32]). We monitored mNeongreen-FtsZ localization in a Gram-positive bacterium, Bacillus subtilis, to eliminate the potentially confounding issue of the passage of EPM analogs through the outer membrane at different rates ([24], [33][–][36]).
To determine whether exposure to compound dislodges FtsZ from the cell septum, an overnight culture of Bacillus subtilis grown in LPM at pH 5.5 (LPM 5.5) expressing mNeonGreen-FtsZ (strain DK5092) was exposed to DMSO, CCCP (100 µM) or an EPM analog (150 µM) for 15 or 30 min, as indicated. Bacteria were immobilized on 1% agarose pads made with LPM under a coverslip. To set the threshold value for the FtsZ septal ring, mNeonGreen signal (excitation 488 nm, emission 525 nm) from at least 20 DMSO-treated cells was quantified using a CV1000 confocal microscope with a 100× oil, NA = 1.4 objective. A background-subtracted image was made by subtracting the median intensity from full original images. A signal threshold of ≥400 arbitrary units per pixel was set (Fig. 4B). Then, we manually confirmed that mNeonGreen signal above threshold was at the center of the bacterial rod. We examined 50 cells per sample from at least three biological replicates (≥150 cells per condition). A MATLAB program (https://github.com/Betterton-Lab/FtsZ-Quantification) counted the number of pixels above threshold per cell and averaged this value across all cells for each condition and this value is reported in the graph (Fig. 4C).

S. Typhimurium = experiment: Checkerboard growth assays with antibiotics in LPM 5.5 (FICI and MuSyC analyses); type: cell-based; parameters: Antibiotic MIC Combination: unit not given here; EPM MIC Combination: unit: µM; settings: for log10(α1) [95% CI] (log-fold-change in potency of EPM due to the antibiotic) / Βobs [95% CI] (proportion increase in maximal efficacy of the antibiotic) / log10(α2) [95% CI] (log-fold-change in potency of the antibiotic due to the EPM): MuSyC fit; for Antibiotic MIC Combination / EPM MIC Combination / FICI value: LPM 5.5
Description: To examine whether the EPM analogs interact additively or synergistically with antibiotics, checkerboard growth assays were carried out in LPM 5.5. We compared three antibiotics (ciprofloxacin, doxycycline, erythromycin) and three EPM analogs (CU032, CU187, CU232) and the EPM35 parent compound (Fig. 6A). Standard fractional inhibitory concentration index (FICI) analyses supported synergy between the EPM analogs and ciprofloxacin (Fig. 6B). Since FICI values cannot distinguish between synergy due to changes in potency (activity) versus efficacy (the extent of the effect) ([42], [43]), we used the MuSyC synergy algorithm to measure EPM-antibiotic synergy ([44], [45]). The data were well fit by the MuSyC equation, with an R^2 of greater than 0.96 for all checkerboards (Table S2). […] Moreover, the consistency in the synergy of potency values across the antibiotics with different EPM analogs points toward a shared mechanism of action: the EPMs could modify the pharmacodynamics of the efflux process and prevent export of specific substrates through interactions with AcrB. We posit that the EPMs differentially reduce antibiotic export resulting in a higher effective intracellular concentration of the antibiotic.
Overnight cation-adjusted MHB-grown cultures of SL1344 or SA10801 were diluted in MHB or LPM 5.5 to an optical density at 600 nm (OD600) of 0.01 and distributed into polystyrene 96-well flat-bottom plates. EPM analogs were added at concentrations up to 300 µM, near the limit of solubility. The antibiotics ciprofloxacin, doxycycline, and erythromycin were added up to concentrations of 2 µM, 2 µM, and 8 µM, respectively. The final DMSO concentration was at or below 2% in all wells. Plates were grown at 37°C with shaking for 18 h and OD600 was monitored (BioTek Synergy H1, BioTek Eon). Each experiment was performed with biological triplicate or higher as indicated. Percent growth was determined by normalizing to OD600 reads in wells containing no D66 or antibiotic. Checkerboards in LPM 5.5 medium were performed with culture grown overnight in LB and diluted to an OD600 of 0.01 in LPM 5.5 and compounds/antibiotics were added as previously described. MuSyC analysis was pursued as previously described ([44], [45]). Briefly, the 2D Hill equation was fit to the normalized growth inhibition data from the checkerboards using a bounded non-linear least square regression algorithm. A Monte Carlo sampling method was used to compute the 95% CI in the parameter fits from three biological replicates. The bounds on the parameters minimal and maximal efficacy of the antibiotics and EPMs (E0,Emax) were [0.99,1.01] and [0,1], respectively ([44], [45]).

[2] = tested on: S. Typhimurium SL1344 (sifB::gfp) in RAW 264.7 macrophages; experiment: SAFIRE macrophage assay: intracellular bacterial load (GFP signal within macrophages); type: cell-based, Salmonella enterica serotype Typhimurium
Procedure, shortened: (§1)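 Compound or DMSO added 2 h after gentamicin-protected infection (MOI ~30, sifB::gfp SL1344) of RAW 264.7 cells and left to 18 h. Fixed cells imaged; intracellular GFP area per macrophage gives bacterial load, while retained adherent MitoTracker Red-stained macrophages define host toxicity.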

RAW 264.7 macrophages = experiment: SAFIRE macrophage assay: host toxicity (adherent macrophage count, morphology); type: cell-based
Procedure, shortened: as §1

[3] = biological target: Klebsiella pneumoniae AcrB multidrug efflux pump; parameters: method as in PMID 37067435; settings: K. pneumoniae AcrB; cited from earlier work
[4] = 5 uM, 'Toxic' given instead of a score
[5] = 25 uM, 'Toxic' given instead of a score
[6] = 5 uM compound, n=1, DMSO solvent control = 98, rifampicin 2 μg/mL = 65
[7] = 25 uM compound, n=1, DMSO solvent control = 98, rifampicin 2 μg/mL = 65
[8] = 5 uM compound, n=1, DMSO solvent control = 100
[9] = 25 uM compound, n=1, DMSO solvent control = 100

N#CC(C#N)=NNc1cccc(Cl)c1 [CCCP, carbonyl cyanide m-chlorophenyl hydrazone, reference compound]
effect on FtsZ localization ([1]; 100 µM): delocalized FtsZ

NC1CCN(CC(O)COc2ccc(Cl)cc2)CC1 (centres unmarked) [CU187]
effect on mNeongreen-FtsZ ring size / localization ([1]; 150 µM, 15 min, LPM 5.5): did not alter FtsZ localization | log10(α1) [95% CI] (log-fold-change in potency of EPM due to the antibiotic) (S. Typhimurium; Ciprofloxacin): 0.33 [0.19,0.37] | Βobs [95% CI] (proportion increase in maximal efficacy of the antibiotic) (S. Typhimurium; Ciprofloxacin): 0.01 [-0.01,0.04] | log10(α1) [95% CI] (log-fold-change in potency of EPM due to the antibiotic) (S. Typhimurium; Doxycycline): 0.32 [-0.07,0.39] | log10(α2) [95% CI] (log-fold-change in potency of the antibiotic due to the EPM) (S. Typhimurium; Doxycycline): 0.46 [0.37,0.47] | Βobs [95% CI] (proportion increase in maximal efficacy of the antibiotic) (S. Typhimurium; Doxycycline): 0.02 [-0.0,0.02] | log10(α2) [95% CI] (log-fold-change in potency of the antibiotic due to the EPM) (S. Typhimurium; Erythromycin): 0.93 [0.85,0.96] | Βobs [95% CI] (proportion increase in maximal efficacy of the antibiotic) (S. Typhimurium; Erythromycin): 0.04 [0.03,0.04] | Antibiotic MIC Combination (S. Typhimurium; ciprofloxacin (CIPRO) MIC in combination with the EPM): 0.2 | Antibiotic MIC Combination (S. Typhimurium; doxycycline (DOXY) MIC in combination with the EPM): 1 | EPM MIC Combination (S. Typhimurium; with ciprofloxacin (CIPRO)): 66 | FICI value (S. Typhimurium; with ciprofloxacin (CIPRO)): 0.27 | EPM MIC Combination (S. Typhimurium; with doxycycline (DOXY)): 100 | FICI value (S. Typhimurium; with doxycycline (DOXY)): 0.45 | EPM MIC Combination (S. Typhimurium; with erythromycin (ERY)): 100 | FICI value (S. Typhimurium; with erythromycin (ERY)): 0.58 | 5 uM Avg Antibacterial Score [2, 4]: 25 | 25 uM Avg Antibacterial Score [2, 5]: 24 | IC50 ([2]; Salmonella enterica, TYPHIMURIUM, RAW264.7, read-out: SAFIRE IC50): 0.0004 µM | 5 uM Avg Cell # Score (RAW 264.7 macrophages; 5 uM): 121 | 25 uM Avg Cell # Score (RAW 264.7 macrophages; 25 uM): 98

CC1(N)CCN(CC(O)COc2cc(Cl)cc(Cl)c2)CC1 (centres unmarked) [CU243]
5 uM Avg Antibacterial Score [2, 6]: 21 | 25 uM Avg Antibacterial Score [2, 7]: 12 | 5 uM Avg Cell # Score (RAW 264.7 macrophages; [8]): 129 | 25 uM Avg Cell # Score (RAW 264.7 macrophages; [9]): 90

N[C@H]1CC[C@@H](NCC(O)COc2ccc(Cl)c(Cl)c2)CC1 (some centres unmarked) [CU245]
5 uM Avg Antibacterial Score [2, 6]: 66 | 25 uM Avg Antibacterial Score [2, 7]: 16 | 5 uM Avg Cell # Score (RAW 264.7 macrophages; [8]): 122 | 25 uM Avg Cell # Score (RAW 264.7 macrophages; [9]): 103

N[C@H]1CC[C@H](NCC(O)COc2ccc(Cl)c(Cl)c2)CC1 (some centres unmarked) [CU246]
5 uM Avg Antibacterial Score [2, 6]: 72 | 25 uM Avg Antibacterial Score [2, 7]: 19 | 5 uM Avg Cell # Score (RAW 264.7 macrophages; [8]): 117 | 25 uM Avg Cell # Score (RAW 264.7 macrophages; [9]): 106

OC(COc1cc(Cl)cc(Cl)c1)CN1CCCCC1 (centres unmarked) [CU247]
5 uM Avg Antibacterial Score [2, 6]: 93 | 25 uM Avg Antibacterial Score [2, 7]: 50 | 5 uM Avg Cell # Score (RAW 264.7 macrophages; [8]): 118 | 25 uM Avg Cell # Score (RAW 264.7 macrophages; [9]): 111

OC(COc1cc(Cl)cc(Cl)c1)CN1CCCC1 (centres unmarked) [CU248]
5 uM Avg Antibacterial Score [2, 6]: 93 | 25 uM Avg Antibacterial Score [2, 7]: 48 | 5 uM Avg Cell # Score (RAW 264.7 macrophages; [8]): 115 | 25 uM Avg Cell # Score (RAW 264.7 macrophages; [9]): 108

NCCC1CCN(CC(O)COc2ccc(Cl)c(Cl)c2)CC1 (centres unmarked) [CU249]
5 uM Avg Antibacterial Score [2, 6]: 17 | 25 uM Avg Antibacterial Score [2, 7]: Toxic | 5 uM Avg Cell # Score (RAW 264.7 macrophages; [8]): 123 | 25 uM Avg Cell # Score (RAW 264.7 macrophages; [9]): 56

NCCC1CCN(CC(O)COc2cc(Cl)cc(Cl)c2)CC1 (centres unmarked) [CU250]
5 uM Avg Antibacterial Score [2, 6]: 20 | 25 uM Avg Antibacterial Score [2, 7]: Toxic | 5 uM Avg Cell # Score (RAW 264.7 macrophages; [8]): 115 | 25 uM Avg Cell # Score (RAW 264.7 macrophages; [9]): 26

NCCC1CCN(CC(O)COc2ccc(Cl)c(Cl)c2)C1 (centres unmarked) [CU251]
5 uM Avg Antibacterial Score [2, 6]: 100 | 25 uM Avg Antibacterial Score [2, 7]: 103 | 5 uM Avg Cell # Score (RAW 264.7 macrophages; [8]): 108 | 25 uM Avg Cell # Score (RAW 264.7 macrophages; [9]): 101

NCCC1CCN(CC(O)COc2cc(Cl)cc(Cl)c2)C1 (centres unmarked) [CU252]
5 uM Avg Antibacterial Score [2, 6]: 98 | 25 uM Avg Antibacterial Score [2, 7]: 77 | 5 uM Avg Cell # Score (RAW 264.7 macrophages; [8]): 114 | 25 uM Avg Cell # Score (RAW 264.7 macrophages; [9]): 117

O[C@@H](COc1ccc(Cl)c(Cl)c1)CN1CCCCC1 [CU253]
5 uM Avg Antibacterial Score [2, 6]: 96 | 25 uM Avg Antibacterial Score [2, 7]: 57 | 5 uM Avg Cell # Score (RAW 264.7 macrophages; [8]): 116 | 25 uM Avg Cell # Score (RAW 264.7 macrophages; [9]): 120

O[C@@H](COc1ccc(Cl)c(Cl)c1)CN1CCCC1 [CU254]
5 uM Avg Antibacterial Score [2, 6]: 89 | 25 uM Avg Antibacterial Score [2, 7]: 51 | 5 uM Avg Cell # Score (RAW 264.7 macrophages; [8]): 119 | 25 uM Avg Cell # Score (RAW 264.7 macrophages; [9]): 125

CC(C)(C)c1nc(NC(=N)N)sc1Br [EPM30]
5 uM Avg Antibacterial Score [2, 4]: 92 | 25 uM Avg Antibacterial Score [2, 5]: Toxic | 5 uM Avg Cell # Score (RAW 264.7 macrophages; 5 uM): 97 | 25 uM Avg Cell # Score (RAW 264.7 macrophages; 25 uM): 66

Cc1ccc(Sc2cccc3nc(N)nc(N)c23)cc1 [EPM43]
5 uM Avg Antibacterial Score [2, 4]: 81 | 25 uM Avg Antibacterial Score [2, 5]: Toxic | 5 uM Avg Cell # Score (RAW 264.7 macrophages; 5 uM): 93 | 25 uM Avg Cell # Score (RAW 264.7 macrophages; 25 uM): 67

CO[C@H]1/C=C/O[C@@]2(C)Oc3c(C)c(O)c4c(O)c(c(/C=N/N5CCN(C)CC5)c(O)c4c3C2=O)NC(=O)/C(C)=C\C=C\[C@H](C)[C@H](O)[C@@H](C)[C@@H](O)[C@@H](C)[C@H](OC(C)=O)[C@@H]1C [Rifampicin]
Avg Antibact Score ([2]; control, rifampicin 2 μg/mL, DMSO = 98): 65 | Avg Cell # Score (RAW 264.7 macrophages; control, rifampicin 2 μg/mL, DMSO = 100): 111

CC[C@H]1OC(=O)[C@H](C)[C@@H](O[C@H]2C[C@@](C)(OC)[C@@H](O)[C@H](C)O2)[C@H](C)[C@@H](O[C@@H]2O[C@H](C)C[C@H](N(C)C)[C@H]2O)[C@](C)(O)C[C@@H](C)C(=O)[C@H](C)[C@@H](O)[C@]1(C)O [erythromycin]
Kd [3]: 14.4 µM
